# Data: patent US10106762B2, “Treating a textile garment with a hydrophobic dye solution” (Henkel IP & Holding GmbH, priority 2004, dated 2018)
# Assays:
# [1] = Optical density of dye solution; assay type: physicochemical; conditions: 200 ppb solution in water at 10 cm; extrapolated from measurement in ethanol solutions at higher levels
# LogP of dye = assay type: physicochemical
Molecule,OD 10 cm [1],logP (LogP of dye)
Disperse Blue 367,0.0067,–
Solvent blue 43,0.33,–
COc1cc(/N=N/c2c(Br)cc([N+](=O)[O-])cc2[N+](=O)[O-])c(NC(C)=O)cc1N(CCOC(C)=O)CCOC(C)=O [Disperse Blue 79:1],0.048,4.5
CCN(CCO)c1ccc(/N=N/c2ccc([N+](=O)[O-])cc2)cc1 [disperse red 1],0.023,4
CCN(CC)c1ccc(/N=N/c2c(C#N)cc([N+](=O)[O-])cc2C#N)c(NC(C)=O)c1 [Disperse Blue 165],0.014,3.5
CC1(C)Nc2cccc3c(/N=N/c4ccc(/N=N/c5ccccc5)c5ccccc45)ccc(c23)N1 [solvent black 3],0.11,8.5
"CN=C1C=CC(=C(c2ccc(N(C)C)cc2)c2ccc(N(C)C)cc2)C=C1 [Solvent Violet 8, Solvent Violet 8 (Methyl Violet B Base)]",0.26,4.5
